Measurements published in BindingDB's records for doi:10.1074/jbc.M607913200 (Incyte, 2006).

Target: T1, Tyrosine-protein phosphatase non-receptor type 1 [1-298] (Homo sapiens, UniProt P18031)
T1 construct: 1-298
T1 sequence (P18031 whole entry): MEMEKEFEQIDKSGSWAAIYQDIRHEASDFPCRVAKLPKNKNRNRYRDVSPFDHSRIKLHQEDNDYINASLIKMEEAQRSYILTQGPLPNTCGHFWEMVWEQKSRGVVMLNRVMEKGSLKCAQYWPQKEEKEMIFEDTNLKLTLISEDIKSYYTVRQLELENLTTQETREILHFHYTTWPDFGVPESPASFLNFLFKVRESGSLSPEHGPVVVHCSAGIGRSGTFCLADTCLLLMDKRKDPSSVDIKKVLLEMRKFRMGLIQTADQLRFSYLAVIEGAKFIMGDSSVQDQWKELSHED
Test: Phosphatase Inhibition Assay

O=C1C[C@@H](c2ccc(C[C@H](Nc3nc4c(F)cc(Cl)cc4s3)c3nc4ccccc4[nH]3)cc2)S(=O)(=O)N1 [(5S)-5-{4-[(2S)-2-(1H-1,3-benzodiazol-2-yl)-2-[(6-chloro-4-fluoro-1,3-benzothiazol-2-yl)amino]ethyl]phenyl}-1,2-thiazolidine-1,1,3-trione]
IC50 (pH 7, 22 °C): 1.8 µM

O=C1CC(c2ccc(C[C@H](NC(=O)C(F)(F)c3ccccc3)c3nc4ccccc4[nH]3)cc2)S(=O)(=O)N1 (stereo partly drawn) [N-[(1S)-1-(1H-1,3-benzodiazol-2-yl)-2-[4-(1,1,3-trioxo-1,2-thiazolidin-5-yl)phenyl]ethyl]-2,2-difluoro-2-phenylacetamide]
IC50: 0.2 µM

NC(=O)[C@H](Cc1ccc(C(F)(F)P(=O)(O)O)cc1)NC(=O)[C@H](Cc1ccccc1)NC(=O)Cc1ccc(C(F)(F)P(=O)(O)O)cc1 [({4-[(2S)-2-carbamoyl-2-[(2S)-2-(1-{4-[difluoro(phosphono)methyl]phenyl}acetamido)-3-phenylpropanamido]ethyl]phenyl}difluoromethyl)phosphonic acid]
IC50 (pH 7, 22 °C): 0.0017 µM

O=C1CC(c2ccc(C[C@H](NS(=O)(=O)c3ccccc3)c3nc4ccccc4[nH]3)cc2Cl)S(=O)(=O)N1 (stereo partly drawn) [N-[(1S)-1-(1H-1,3-benzodiazol-2-yl)-2-[3-chloro-4-(1,1,3-trioxo-1,2-thiazolidin-5-yl)phenyl]ethyl]benzenesulfonamide]
IC50: 0.075 µM
